Measured values from patent US20150218172A1, “Pyrrolo[2,3-D]Pyrimidine Tropomyosin-Related Kinase Inhibitors” (PFIZER LIMITED, priority 2012, published 2015).

biological target: T1, TrkA (Homo sapiens, UniProt P04629); assay: Isolated TRK enzyme assay (HTRF KinEASE-TK kit), PV3144 TrkA enzyme assay; assay type: biochemical; conditions: not given
T1 construct: aa 441-796; His; purchased Invitrogen PV3144
Method: Isolated TRK Enzyme assays use the HTRF KinEASE-TK kit (Cisbio Cat#62TK0PEJ) with recombinant His-tagged cytoplasmic domains of each TRK receptor sourced from Invitrogen (see table below). This activity-assay measures the phosphorylation of tyrosine residues within a substrate from the HTRF kit which has been validated by Cisbio for a variety of tyrosine kinases including the TRK receptors.
0.5 mM stock solutions of test compounds are prepared and serially diluted in 100% DMSO. A standard curve using the compound of Example 135 disclosed in WO2005/116035 of 150 uM is also prepared on each test plate. High percentage effect (HPE) is defined by 150 uM (using the compound of Example 135 as disclosed in WO2005/116035) and 0% effect (ZPE) is defined by 100% DMSO. Greiner low volume black plates containing 0.2 ul of serially diluted compound, standard and HPE/ZPE are created using the Bravo nanolitre dispenser.
1X enzyme buffer is prepared from 5X Enzymatic Buffer from the Cisbio KinEASE TK kit using MilliQ water. The buffer is then supplemented with 10 mM MgCl and 2 mM DTT (both from Sigma). In the case of TRKB, the buffer is also supplemented with 125 nM Supplement Enzymatic Buffer (SEB) from the Cisbio kit.
2X FAC of enzyme and 2X FAC ATP diluted in 1X complete enzyme buffer is incubated at room temperature for 20 minutes to preactivate the enzyme. Following this preactivation step, 5 ul/well of enzyme+ATP mix is added using a Multidrop Micro to the assay plate, spotted with 0.2 ul 100% DMSO compound. This is left for 20 mins at room temperature before adding 5 ul of 2 uM TK-substrate-Biotin (from the Cisbio kit) diluted in 1X enzyme buffer (1 uM FAC) using the Multidrop Micro. The reaction is incubated at room temperature for the optimized assay reaction time (see table). The reaction is stopped by adding 10 ul/well HTRF Detection Buffer containing 0.25 uM Streptavidin-XL665 (0.125 uM FAC) and 1:200 TK Antibody-Cryptate using a Multidrop.
After the Detection Reagent addition, plates are covered and incubated at room temperature for 60 minutes. HTRF signal is read using an Envision reader, measured as a ratio of emissions at two different wavelengths, 620 nm and 665 nm. […] Test compound data are expressed as percentage inhibition defined by HPE and ZPE values for each plate. Percentage inhibition in the presence of test compound is plotted against compound concentration on a log scale to determine an IC50 from the resultant sigmoid curve.
Below are TrkA IC50 data generated using the PV3144 TrkA enzyme assay. Where more than one reading was taken, the arithmetic mean is presented.

T1 sequence (P04629 441-796): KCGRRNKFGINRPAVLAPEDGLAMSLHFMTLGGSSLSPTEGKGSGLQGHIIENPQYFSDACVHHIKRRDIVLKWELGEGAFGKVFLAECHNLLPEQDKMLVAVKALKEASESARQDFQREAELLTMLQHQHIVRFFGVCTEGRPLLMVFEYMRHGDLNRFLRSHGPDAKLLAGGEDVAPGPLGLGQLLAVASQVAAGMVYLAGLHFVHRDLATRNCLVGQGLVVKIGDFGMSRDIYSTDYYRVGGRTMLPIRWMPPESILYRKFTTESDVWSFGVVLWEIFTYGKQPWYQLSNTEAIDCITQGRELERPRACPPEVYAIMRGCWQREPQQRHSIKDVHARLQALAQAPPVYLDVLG

Row | Compound | IC50 [µM]
1 | Cc1cc(C)n(CC(=O)Nc2cc(C(=O)c3cn(CC4CC4)c4ncncc34)ccn2)n1 [Example 176, N-(4-{[7-(Cyclopropylmethyl)-7H-pyrrolo[2,3-d]pyrimidin-5-yl]carbonyl}pyridin-2-yl)-2-(3,5-dimethyl-1H-pyrazol-1-yl)acetamide] | 0.107

same assay, conditions: PV3144 TrkA enzyme assay, recombinant His-tagged cytoplasmic domain aa 441-796, 4 nM enzyme, 40 uM ATP; arithmetic mean where more than one reading; read-out: Trka enzyme (IC50)

Row | IC50 [µM] | Compound
2 | 0.0722 | C[C@@H](CO)n1cc(C(=O)c2cc(NC(=O)Cc3ccc(C(F)(F)F)cc3)ccn2)c2cncnc21 [Example 17, N-[2-({7-[(2S)-1-hydroxypropan-2-yl]-7H-pyrrolo[2,3-d]pyrimidin-5-yl}carbonyl)pyridin-4-yl]-2-[4-(trifluoromethyl)phenyl]acetamide]
3 | 0.0541 | CC(C)n1cc(C(=O)c2cc(NC(=O)Cn3ccc(C(F)(F)F)n3)ccn2)c2cnc(N)nc21 [Example 85, N-(2-{[2-amino-7-(propan-2-yl)-7H-pyrrolo[2,3-d]pyrimidin-5-yl]carbonyl}pyridin-4-yl)-2-[3-(trifluoromethyl)-1H-pyrazol-1-yl]acetamide]
4 | 0.021 | CC(C)(C)n1cc(C(=O)c2cc(NC(=O)Cc3ccc(F)cn3)ccn2)c2cncnc21 [Example 37, N-{2-[(7-tert-butyl-7H-pyrrolo[2,3-d]pyrimidin-5-yl)carbonyl]pyridin-4-yl}-2-(5-fluoropyridin-2-yl)acetamide]
5 | 0.0589 | O=C(Cc1ccc(Cl)cc1)Nc1cc(C(=O)c2cn(C(CO)CO)c3ncncc23)ccn1 [Example 113, 2-(4-Chlorophenyl)-N-[4-({7-[2-hydroxy-1-(hydroxymethyl)ethyl]-7H-pyrrolo[2,3-d]pyrimidin-5-yl}carbonyl)pyridin-2-yl]acetamide]
6 | 0.0289 | CC(C)n1cc(C(=O)c2ccnc(NC(=O)Cc3ccc(Cl)cc3)c2)c2cncnc21 [Example 67, 2-(4-chlorophenyl)-N-(4-{[7-(propan-2-yl)-7H-pyrrolo[2,3-d]pyrimidin-5-yl]carbonyl}pyridin-2-yl)acetamide]
7 | 1.55 | COCc1cn(CC(=O)Nc2cc(C(=O)c3cn(C(C)C)c4ncncc34)ccn2)nn1 [Example 117, 2-[4-(methoxymethyl)-1H-1,2,3-triazol-1-yl]-N-(4-{[7-(propan-2-yl)-7H-pyrrolo[2,3-d]pyrimidin-5-yl]carbonyl}pyridin-2-yl)acetamide]
8 | 0.216 | CC(C)(CO)n1cc(C(=O)c2cc(NC(=O)Cn3cc(C(F)(F)F)nn3)ccn2)c2cnc(N)nc21 [Example 53, N-(2-{[2-amino-7-(1-hydroxy-2-methylpropan-2-yl)-7H-pyrrolo[2,3-d]pyrimidin-5-yl]carbonyl}pyridin-4-yl)-2-[4-(trifluoromethyl)-1H-1,2,3-triazol-1-yl]acetamide]
9 | 0.0756 | N#Cc1ccc(CC(=O)Nc2cc(C(=O)c3cn([C@H]4CC[C@@H](O)CC4)c4ncncc34)ccn2)cc1 [Example 5, 2-(4-cyanophenyl)-N-(4-{[7-(cis-4-hydroxycyclohexyl)-7H-pyrrolo[2,3-d]pyrimidin-5-yl]carbonyl}pyridin-2-yl)acetamide]
10 | 0.0228 | O=C(Cc1ccc(Cl)cc1)Nc1cc(C(=O)c2cn([C@H]3CC[C@H](O)CC3)c3ncncc23)ccn1 [Example 1, 2-(4-chlorophenyl)-N-(4-{[7-(trans-4-hydroxycyclohexyl)-7H-pyrrolo[2,3-d]pyrimidin-5-yl]carbonyl}pyridin-2-yl)acetamide]
11 | 0.583 | O=C(Cc1ccccc1OC(F)(F)F)Nc1cc(C(=O)c2cn(CCO)c3ncncc23)ccn1 [Example 134, N-(4-{[7-(2-hydroxyethyl)-7H-pyrrolo[2,3-d]pyrimidin-5-yl]carbonyl}pyridin-2-yl)-2-[2-(trifluoromethoxy)phenyl]acetamide]
12 | 1.5 | O=C(Cc1ccc(OC(F)(F)F)cc1)Nc1ccnc(C(=O)c2cn(C(CO)CO)c3ncncc23)c1 [Example 98, N-(2-{[7-(1,3-dihydroxypropan-2-yl)-7H-pyrrolo[2,3-d]pyrimidin-5-yl]carbonyl}pyridin-4-yl)-2-[4-(trifluoromethoxy)phenyl]acetamide]
13 | 0.0185 | CC(C)n1cc(C(=O)c2cc(NC(=O)Cn3cc(C(F)(F)F)nn3)ccn2)c2cnc(N)nc21 [Example 90, N-(2-{[2-amino-7-(propan-2-yl)-7H-pyrrolo[2,3-d]pyrimidin-5-yl]carbonyl}pyridin-4-yl)-2-[4-(trifluoromethyl)-1H-1,2,3-triazol-1-yl]acetamide]
14 | 0.0273 | Cc1cc(C)n(CC(=O)Nc2cc(C(=O)c3cn(C(C)(C)C)c4ncncc34)ccn2)n1 [Example 174, N-{4-[(7-tert-butyl-7H-pyrrolo[2,3-d]pyrimidin-5-yl)carbonyl}pyridin-2-yl]-2-(3,5-dimethyl-1H-pyrazol-1-yl)acetamide]
15 | 0.617 | Cc1cc(C)n(CC(=O)Nc2cc(C(=O)c3cn(CC4(O)CC4)c4ncncc34)ccn2)n1 [Example 177, 2-(3,5-Dimethyl-1H-pyrazol-1-yl)-N-[4-({7-[(1-hydroxycyclopropyl)methyl]-7H-pyrrolo[2,3-d]pyrimidin-5-yl}carbonyl)pyridin-2-yl]acetamide]
16 | 0.0107 | CC(C)(C)n1cc(C(=O)c2cc(NC(=O)Cn3ccc(C(F)(F)F)n3)ccn2)c2cncnc21 [Example 41, N-{2-[(7-tert-butyl-7H-pyrrolo[2,3-d]pyrimidin-5-yl)carbonyl]pyridin-4-yl}-2-[3-(trifluoromethyl)-1H-pyrazol-1-yl]acetamide]
17 | 1.35 | CC(C)n1cc(C(=O)c2ccnc(NC(=O)Cn3cccn3)c2)c2cncnc21 [Example 158, N-(4-{[7-(propan-2-yl)-7H-pyrrolo[2,3-d]pyrimidin-5-yl]carbonyl}pyridin-2-yl)-2-(1H-pyrazol-1-yl)acetamide]
18 | 0.0781 | C[C@@H](CO)n1cc(C(=O)c2cc(NC(=O)Cn3cc(C(F)(F)F)nn3)ccn2)c2cncnc21 [Example 31, N-[2-({7-[(2S)-1-hydroxypropan-2-yl]-7H-pyrrolo[2,3-d]pyrimidin-5-yl}carbonyl)pyridin-4-yl]-2-[4-(trifluoromethyl)-1H-1,2,3-triazol-1-yl]acetamide]
19 | 0.00571 | CC(C)n1cc(C(=O)c2cc(NC(=O)Cc3ccc(Cl)cc3)ccn2)c2cncnc21 [Example 47, 2-(4-Chloro-phenyl)-N-[2-(7-isopropyl-7H-pyrrolo[2,3-d]pyrimidine-5-carbonyl)-pyridin-4-yl]-acetamide]
20 | 0.0743 | Cc1cc(C)n(CC(=O)Nc2cc(C(=O)c3cn([C@H]4CC[C@@H](O)CC4)c4ncncc34)ccn2)n1 [Example 4, 2-(3,5-dimethyl-1H-pyrazol-1-yl)-N-(4-{[7-(cis-4-hydroxycyclohexyl)-7H-pyrrolo[2,3-d]pyrimidin-5-yl]carbonyl}pyridin-2-yl)acetamide]
21 | 0.0759 | CC(C)n1cc(C(=O)c2cc(NC(=O)Cc3cccc(S(C)(=O)=O)c3)ccn2)c2cnc(N)nc21 [Example 88, N-(2-{[2-amino-7-(propan-2-yl)-7H-pyrrolo[2,3-d]pyrimidin-5-yl]carbonyl}pyridin-4-yl)-2-[3-(methylsulfonyl)phenyl]acetamide]
22 | 0.0213 | O=C(Cc1ccc(Cl)cc1)Nc1cc(C(=O)c2cn([C@H]3CC[C@@H](O)CC3)c3ncncc23)ccn1 [Example 6, 2-(4-chlorophenyl)-N-(4-{[7-(cis-4-hydroxycyclohexyl)-7H-pyrrolo[2,3-d]pyrimidin-5-yl]carbonyl}pyridin-2-yl)acetamide]
23 | 2.19 | O=C(Cc1ccc(Cl)cn1)Nc1ccnc(C(=O)c2cn(C(CO)CO)c3ncncc23)c1 [Example 100, 2-(5-chloropyridin-2-yl)-N-(2-{[7-(1,3-dihydroxypropan-2-yl)-7H-pyrrolo[2,3-d]pyrimidin-5-yl]carbonyl}pyridin-4-yl)acetamide]
24 | 1.06 | CC(C)n1cc(C(=O)c2ccnc(NC(=O)Cn3ccnc3)c2)c2cncnc21 [Example 156, 2-(1H-imidazol-1-yl)-N-(4-{[7-(propan-2-yl)-7H-pyrrolo[2,3-d]pyrimidin-5-yl]carbonyl}pyridin-2-yl)acetamide]
25 | 0.139 | O=C(Cc1cccc(C(F)(F)F)c1)Nc1ccnc(C(=O)c2cn(C(CO)CO)c3ncncc23)c1 [Example 96, N-(2-{[7-(1,3-dihydroxypropan-2-yl)-7H-pyrrolo[2,3-d]pyrimidin-5-yl]carbonyl}pyridin-4-yl)-2-[3-(trifluoromethyl)phenyl]acetamide]
